Laboratory results as given in EP3733658B1, “PRENYLATED BENZOPYRANES AS PPAR AGONISTS” (Universitat de València, priority 2017, dated 2019).

Columns and labels:
[1] = tested on: mononuclear cell adhesion induced by TNFα; assay: Mononuclear cell adhesion to TNFα-stimulated HUVEC transfected with control or RXRα, PPARα, PPARγ specific siRNA; format: cell-based, human; settings: 20 h
[2] = tested on: human umbilical vein endothelial cells (HUVEC); assay: MTT colorimetric cell viability assay, HUVEC; format: cell-based; settings: 30 µM, 24 h
Procedure: To evaluate potential adverse effects (cytotoxicity) of the compounds of the invention, the compounds 1 and 2 for use according to the present invention, compound 8 of the invention, and the reference compounds were evaluated at concentrations of 30 and 100 µM in human neutrophils (Fig. 1A) and primary cultures of human umbilical vein endothelial cells (HUVEC) (Fig. 1B) using two different techniques: MTT colorimetry assay and flow cytometry analysis for cellular apoptosis and survival. In addition, the synthetic compound 9 of the invention was evaluated at 10, 30 and 100 µM (Fig. 2).
MTT assay. The viability of neutrophils and HUVEC was determined by the MTT colorimetric assay MTT (3(4,5-dimethylthiazol-2-yl)-2,5-diphenyltetrazoyl bromide).
Human umbilical vein endothelial cells (HUVEC) were isolated with the collagenase treatment and maintained in a human specific endothelial base medium (EBM-2) supplemented with endothelial growth medium (EGM-2) and 10% FCS. Cells of the first passage were cultured until their confluence in 24-well plates. Before starting each experiment, the cells were incubated for 24 h in a medium containing 1% FBS.
100 µL of neutrophils and HUVEC (2 × 10^5 cells/mL) suspension in supplemented RPMI medium were added to each well of a 96-well plate. The cells were incubated in absence and/or presence of the compounds at 37°C for24h. An MTT solution was prepared (2 mg/mL in PBS). 100 µL of the MTT solution were added to each well and incubated at 37°C for an additional 3 h. The supernatants were discarded and 200 µL of DMSO were added to each well to dissolve the precipitated formazan. The optical densities at two wavelengths (560 and 630 nm) were measured in a spectrophotometer (Infinite M200, Tecan, Mannedorf, Switzerland).

human neutrophils = assay: Annexin V / propidium iodide flow cytometry of apoptosis and survival, neutrophils; format: cell-based; settings: 24 h, compared to the vehicle
Procedure: (§1) In addition, the apoptosis and survival rate for human neutrophils and HUVEC was determined by double staining with annexin V and propidium iodide (PI) by flow cytometry.
(§2) Cytofluorometric analysis of apoptosis and survival. The kit FITC Annexin V Apoptosis Detection kit (BD Bioscience, San Jose, CA) was used. The staining protocol and all the reagents were supplied with the commercial kit. HUVEC were separated from the culture flasks by accutase (StemPro® Accutase® Cell dissociation reagent, Thermofischer Scientific Waltham, MA). Both cell types were incubated at 37°C for 24h in the presence or absence of the test compounds. Confluent HUVEC and freshly isolated neutrophils were washed, resuspended in binding buffer 1x (1 × 10^6 cells/mL) and stained with annexin V conjugated with FITC and propidium iodide (PI) as described in the manufacturer's instructions. The cells were analyzed in a BD FACSVerse Flow Cytometer (BD Biosciences, San Jose, CA) and differentiated as early apoptosis cells (annexin V^+ and PI^-), late apoptosis cells and/or necrotic cells (annexin V^+ and PI^+), and live cells (annexin V^- and PI^-).

HUVEC = assay: Annexin V / propidium iodide flow cytometry of apoptosis and survival, HUVEC; format: cell-based, human; settings: tested concentrations including 100 µM, compared with the vehicle
Procedure: as §1, §2

[3] = Treatment of ob/ob mice: body weight gain and feed efficiency; settings: oral, 4 days
Source text: Protocols conforming to European Union guidelines for the care and protection of animals were approved by the Ethics Committee of the University of Valencia. All efforts were made to minimize the number of animals used and their suffering. ob/ob mice have a leptin deficiency, and are associated with hyperphagia and obesity, as well as hyperglycemia and hyperinsulinemia. This study used male ob/ob mice (C57BU6J) (Charles River laboratories, Chatillon-sur-Chalaronne, France).
The mice were housed in individual cages in a room with controlled temperature, humidity and light. […] The mice were allowed to acclimate for ten days prior to the study.
The control ob/ob mice were just administered with vehicle (physiological saline solution with HEC 1%). […] The compounds were prepared freshly each day in a 1% suspension of HEC for oral administration. Randomization was performed based on the glycaemia values on day 0. For the duration of the experiment the amount of food ingested and the body weight were determined daily for each mouse. Every day between 9:00 and 11:00 a.m. (prior to treatment) blood glucose levels were measured using (Contour next USB Blood glucose meter, BAYER, Basel, Switzerland). On the fifth day of the experiment the mice were anesthesized with isofluorane and blood was extracted by cardiac puncture. The blood was collected in tubes containing EDTA or heparin. Plasma samples were obtained by centrifugation and stored at -80°C. After obtaining the samples, the animals were sacrificed by cervical dislocation and subsequently different organs such as white adipose tissue (WAT) and liver were extracted for additional studies. The organs were weighed and frozen for subsequent RNA analysis and to conduct histological studies
The weight gain at the end of treatment was calculated (d5-d0) (Figure 14A).

ob/ob mice = assay: Treatment of ob/ob mice: blood glucose; format: in vivo

| Compound | inhibitory response on mononuclear cell adhesion after PPARα silencing ([1]; PPARα siRNA HUVEC, polycerasoidol 10 µM, rosiglitazone 1 µM) | inhibitory response on mononuclear cell adhesion in HUVEC deficient in PPARγ ([1]; PPARγ siRNA HUVEC, 10 µM) | inhibitory effect on mononuclear cell adhesion after RXRα silencing ([1]; RXRα specific siRNA HUVEC, 10 µM) | TNFα-induced adhesion of mononuclear cells ([1]; control siRNA transfected HUVEC, polycerasoidol 10 µM, rosiglitazone 1 µM) | cytotoxicity (MTT), with respect to the vehicle [2] [%] | effect on neutrophil survival (human neutrophils; 30 µM) [%] | effect on cell survival (human neutrophils; 100 µM) [%] | toxicity (HUVEC) | Weight gain (d5-d0) ([3]; 30 mg/Kg/d) [g] | Feed efficiency (ratio of weight gain and food consumed) [3] | weight gain compared to the control group ([3]; doses of 10 and 30 mg/Kg/d) | glucose blood level, day 0 (before treatment) (ob/ob mice; group given 30 mg/Kg/d) [mg/dL] | glucose blood level after 4 days (ob/ob mice; oral, 30 mg/Kg/d) [mg/dL] | decrease in glucose blood levels compared to day 0 (ob/ob mice; oral, 30 mg/Kg/d, after 4 days) [%] |
| --- | --- | --- | --- | --- | --- | --- | --- | --- | --- | --- | --- | --- | --- | --- |
| C/C(=C\CCC1(C)CCc2cc(O)cc(C)c2O1)CC/C=C(\C)C(=O)O (centres unmarked) [Polycerasoidol, 1, polycerasoidol] | not affected | annulled | completely suppressed | inhibited | – | – | – | – | – | – | – | – | – | – |
| CCOC(=O)CCC(C)=CCCC1(C)CCc2cc(OCc3ccc(F)cc3)ccc2O1 (centres unmarked) [Compound 9] | – | – | – | – | 12 | 1.07 | 1.55 | absence of toxicity | 1.88 ± 0.52 | no observable differences | did not cause significant differences | 261 | 194 | 20 |
